Data as given in patent publication US20240166645A1, “PYRIDOPYRIMIDINONE DERIVATIVE, PREPARATION METHOD THEREFOR, AND USE THEREOF” (Wuhan Humanwell Innovative Drug Research and Development …, priority 2021, published 2024).
Read-outs that look alike come from different tables or passages of the source.

Columns and labels:
KRAS G12C-SOS1 = KRAS G12C-SOS1 (Homo sapiens (Human), UniProt Q07889); assay: Inhibition test on KRAS G12C-SOS1 activity (Transcreener GDP-FI); type: biochemical
Protocol: The compound to be tested was prepared into a 10 mM stock solution with DMSO, and serially diluted using 1× test buffer (modified Tris buffer). The resulting compound solution was transferred to a 384-well plate, and the final content of DMSO was 0.25%, and an additional DMSO well without compound was set up as a high signal control.
1× test buffer (modified Tris buffer) was prepared. […] 5 μL of SOS1 and 5 μL of GTP were transferred to the 384-well plate, respectively.
GDP detection reagent was prepared using the test buffer. 10 μL of the detection reagent solution was transferred to the 384-well plate and incubated at room temperature for 2 h. After incubation, the plate was read on a multifunctional microplate reader (SpectraMax Paradigm) with an excitation wavelength of 580 nm and an emission wavelength of 620 nm. The fluorescence signal was read, and the inhibition rate was calculated as:
inhibition percentage=(high signal control−sample signal)/(high signal control−low signal control)×100, and IC50 values were calculated using Graphpad 5 software.

CYP3A4 = CYP3A4 (Homo sapiens (Human), UniProt P08684); assay: Inhibition test on cytochrome P450 subtype CYP3A4; type: in vitro ADME; conditions: compound 10 μM, human liver microsomes
Protocol: The inhibitory potential of compounds on cytochrome P450 (CYP450) subtype CYP3A4 (two substrates of midazolam and testosterone) was detected. First, the compound to be tested was prepared into a 10 mM stock solution in DMSO solvent, and the CYP3A4 inhibitor ketoconazole was prepared as 10 mM, 2.5 mM and 2.5 mM stock solutions in DMSO solvent. The test compound and ketoconazole were diluted to 400-fold final concentration (compound: 10 μM, ketoconazole: 2.5 μM) with acetonitrile.
NADPH cofactor (10 mL of potassium phosphate buffer added with 66.7 mg NADPH) at 4-fold final concentration and substrates were prepared with potassium phosphate buffer (0.1 M, pH=7.4), with CYP3A4 substrate midazolam at a final concentration of […] and CYP3A4 substrate testosterone at a final concentration of 20 μM.
A human liver microsome solution at a concentration of 0.2 mg/mL was prepared with potassium phosphate buffer on ice. A solution of the compound to be tested and a control inhibitor (control compound) solution at 2-fold final concentration were prepared with the human liver microsome solution on ice. The test wells were added with […] of the test compound solution and the control inhibitor solution respectively, and then added with […] of the substrate for duplication. A 96-well assay plate and a NADPH solution were incubated at 37° C. for 5 min, and 15 μL of pre-heated 8 mM NADPH solution was added to the assay plate to initiate the reaction. A CYP3A4 assay plate was pre-incubated at 37° C. for 5 min. The plate was added with 120 μL of acetonitrile to terminate the reaction, and after quenching, the plate was shaken on a shaker (IKA, MTS 2/4) for 10 min (600 rpm/min), and then centrifuged for 15 min. After centrifugation, the supernatant was collected, and added with purified water in a ratio of 1:1 to perform LC-MS/MS detection. A ratio of a peak area of compound to a peak area of internal standard was obtained, and the peak area ratio of the compound was compared with the peak area ratio of the control inhibitor to calculate the inhibition rate.

H358 cells = assay: Inhibition of 3D cell proliferation (3D CellTiter-Glo); type: cell-based; conditions: Homo sapiens, NCI-H358, 168 h, read-out: IC50 (nM), inhibition of 3D proliferation of H358 cells, 7 days
Protocol: H358 cells were seeded in a T75 culture flask and cultured in a RPMI 1640 medium containing 10% FBS for 2 days for subsequent experiments in which the cells would be cultured or seeded on a 384-well plate.
On day 1, the cells were seeded on the 384-well plate, with 40 μL of medium added per well and serially diluted compounds or DMSO added per well, and an additional well without seeded cells but with medium was set up as a blank control. After culture at 37° C., 5% CO2 for 7 days, the plate was added with 3D CellTiter-Glo reagent (Promega, Cat. No. G9683) on day 8, shaken at 320 rpm for 20 min, and left at room temperature for 2 h. Luminescence signals were read on a multifunctional microplate reader. Cell viability inhibition rate was calculated as:
Cell viability inhibition rate=(DMSO group−test compound)/(DMSO group−blank control group)×100%
IC50 values were calculated using Graphpad 5 software.

[1] = Plasma protein binding by equilibrium dialysis, human plasma; type: in vitro ADME; conditions: 37° C., read-out: Free fraction in plasma, Human (%)
Protocol: (§1) Plasma protein binding rate of compounds was detected by equilibrium dialysis (HTDialysis, HTD 96b). The compound was prepared into a […] stock solution with DMSO, and then 25-fold diluted with 0.05 M sodium phosphate buffer as a working solution. A blank 96-well plate was taken and preloaded with 380 μL of plasma per well. The plasma was then added with the working solution at 20 μL/well and mixed well, with the compound at a final concentration of 1 μM, containing 0.2% DMSO per well.
(§2) 100 μL of 0.05 M sodium phosphate buffer was added to the reception-side of each dialysis chamber (HTD 96b), and then 100 μL of plasma containing the compound was added to the supply-side. The dialysis chamber was covered with a plastic lid, shaken and incubated at 37° C. for 5 h.
(§3) After incubation, 25 μL of samples were taken from each of the supply-side and the reception-side of the dialysis chamber and placed in the blank 96-well plate. An equal volume of plasma was added to each of the supply-side samples while an equal volume of 0.05 M sodium phosphate buffer was added to each of the reception-side samples and mixed well. The 96-well plate was added with an acetonitrile solution containing internal standard at 200 μL per well, vortexed and shaken at 600 rpm for 10 min, and centrifuged at 5594 g for 15 min (Thermo Multifuge×3R). 50 μL of the supernatant was then transferred to a new 96-well plate, and the samples were mixed with 50 μL of ultra-pure water for LC-MS/MS analysis.
(§4) Plasma protein binding rate and free fraction were calculated using the following formulas: % binding rate=100×([supply-side concentration]5h−[reception-side concentration]5h)/[supply-side concentration]5h. % free fraction=100−% binding rate.

[2] = Plasma protein binding by equilibrium dialysis, mouse plasma; type: in vitro ADME; conditions: 37° C., read-out: Free fraction in plasma, Mouse (%)
Protocol: as §1, §2, §3, §4

[3] = Human liver microsome stability test; type: in vitro ADME; conditions: human liver microsomes; for Remaining percentage (%) of compound after incubation for 30 min: 37° C.; for half-life at 1 µM: human
Protocol: The human liver microsome stability test was performed by incubating the compound and human liver microsomes in vitro. First, the compound to be tested was prepared into a 10 mM stock solution in DMSO solvent, and then the compound was diluted to 0.5 mM with acetonitrile. Human liver microsomes (Corning) were diluted with PBS into a microsome/buffer solution, and the solution was used to dilute 0.5 mM compound into a working solution, in which the concentration of the compound was 1.5 μM, and the concentration of human liver microsomes was 0.75 mg/mL. A deep-well plate was taken, 30 μL of the working solution was added per well, and then 15 μL of pre-heated 6 mM NADPH solution was added thereto to initiate a reaction, and the reaction was incubated at 37° C. At 0, 5, 15, 30 and 45 min of the incubation, 135 μL of acetonitrile was added to the corresponding wells to terminate the reaction. After the reaction was terminated with acetonitrile at the last time point of 45 min, the deep-well plate was vortexed and vibrated for 10 min (600 rpm/min), and then centrifuged for 15 min. After centrifugation, the supernatant was collected, and added with purified water in a ratio of 1:1 to perform LC-MS/MS detection. A ratio of a peak area of compound to a peak area of internal standard at each time point was obtained, and the peak area ratios of the compound at 5, 15, 30 and 45 min were compared with the peak area ratio at 0 min to calculate the remaining percentage of the compound at each time point. T1/2 was calculated by using GraphPad 5 software.

[4] = pH 7.4, probe midazolam, substrate midazolam, read-out: CYP inhibition rate (%) CYP3A4 (midazolam)
[5] = pH 7.4, probe testosterone, substrate testosterone, read-out: CYP inhibition rate (%) CYP3A4 (testosterone)

Chain of CYP3A4 (P08684 whole entry): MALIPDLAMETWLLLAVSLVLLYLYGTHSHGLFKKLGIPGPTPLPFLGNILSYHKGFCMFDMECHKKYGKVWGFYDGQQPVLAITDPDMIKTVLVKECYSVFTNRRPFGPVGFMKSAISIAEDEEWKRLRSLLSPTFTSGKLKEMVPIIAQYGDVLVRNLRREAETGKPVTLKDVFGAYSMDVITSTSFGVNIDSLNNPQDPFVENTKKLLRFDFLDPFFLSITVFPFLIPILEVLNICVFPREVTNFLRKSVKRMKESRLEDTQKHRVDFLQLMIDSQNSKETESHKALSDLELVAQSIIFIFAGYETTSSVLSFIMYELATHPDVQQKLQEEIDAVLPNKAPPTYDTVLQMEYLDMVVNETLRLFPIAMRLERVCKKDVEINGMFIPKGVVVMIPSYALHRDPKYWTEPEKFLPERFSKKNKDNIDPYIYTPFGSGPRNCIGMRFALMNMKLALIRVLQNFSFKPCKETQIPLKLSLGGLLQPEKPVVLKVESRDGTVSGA
Chain of KRAS G12C-SOS1 (Q07889 564-1049 limits assumed): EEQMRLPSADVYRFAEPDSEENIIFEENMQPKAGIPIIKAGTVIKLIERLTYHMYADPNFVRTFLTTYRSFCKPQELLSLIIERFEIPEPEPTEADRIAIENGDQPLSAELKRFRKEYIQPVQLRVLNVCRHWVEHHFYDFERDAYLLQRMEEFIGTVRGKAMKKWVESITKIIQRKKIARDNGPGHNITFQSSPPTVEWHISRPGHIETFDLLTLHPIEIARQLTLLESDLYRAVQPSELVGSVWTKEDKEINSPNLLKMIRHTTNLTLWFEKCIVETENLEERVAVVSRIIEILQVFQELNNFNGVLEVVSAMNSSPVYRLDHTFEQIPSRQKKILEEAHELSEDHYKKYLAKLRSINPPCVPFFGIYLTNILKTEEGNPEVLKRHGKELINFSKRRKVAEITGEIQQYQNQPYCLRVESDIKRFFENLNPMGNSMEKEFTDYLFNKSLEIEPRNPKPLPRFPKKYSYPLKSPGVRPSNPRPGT

Row | SMILES | IC50 (KRAS G12C-SOS1) | inhibition at 5 min, 10 µM (CYP3A4; [4]) | inhibition at 5 min, 10 µM (CYP3A4; [5]) | IC50 (H358 cells) | fraction unbound at 5 h, 1 µM [1] | fraction unbound at 5 h, 1 µM [2] | Remaining percentage (%) of compound after incubation for 30 min [3] | half-life at 1 µM [3]
1 | Cc1nc(N[C@H](C)c2cccc(S(=O)(=O)C(F)F)c2C)c2cn(C3(CF)CC3)c(=O)cc2n1 [Compound I-1, (R)-4-((1-(3-((difluoromethyl)sulfonyl)-2-methylphenyl)ethyl)amino)-6-(1-(fluoromethyl)cyclopropyl)-2-methylpyrido[4,3-d]pyrimidin-7(6H)-one] | 59 nM | 17.8% | 0% | 26 nM | 0.042 | 0.054 | 76.4% | 1.46 h
2 | Cc1nc(N[C@H](C)c2cccc(S(=O)(=O)C(F)(F)F)c2F)c2cn(C3(CF)CC3)c(=O)cc2n1 [Compound I-2, (R)-4-((1-(2-fluoro-3-((trifluoromethyl)sulfonyl)phenyl)ethyl)amino)-6-(1-(fluoromethyl)cyclopropyl)-2-methylpyrido[4,3-d]pyrimidin-7(6H)-one] | 102 nM | 10.8% | 0% | 13.9 nM | 0.015 | 0.028 | 96.5% | 7.92 h
